Source: article PMC8330742, “New benzothieno[2,3-c]pyridines as non-steroidal CYP17 inhibitors: design, synthesis, anticancer screening, apoptosis induction, and in silico ADME profile studies” (Journal of Enzyme Inhibition and Medicinal Chemistry, 2021)

Test system: PC-3 cells
Assay: Cell cycle analysis (propidium iodide, flow cytometer)
Type: cell-based, human
Conditions: PC-3, 2.34 µM, 24 h
Procedure: The prostate PC-3 cells were placed in a six-well plate at 1 × 10^5 conc. of cells/well, then incubated for 24 h. The cells were treated with 2.34 µM of compound 5c or (0.1% DMSO) for 24 h. Thereafter, cells were collected and fixed for 12 h using ice-cold 70% ethanol at 4 °C. Then, ethanol was removed, and the cells were washed with cold Phosphate Buffer Saline (PBS) and incubated for 30 min at 37 °C in 0.5 ml of PBS. The cells were stained for 30 min with propidium iodide in the dark. The flow cytometer was used to detect DNA contents.

N#CC1C(=O)NC(c2ccccc2[N+](=O)[O-])c2sc3c(F)cccc3c21 (stereo not shown) [Compound 5c, 4-Cyano-8-fluoro-1-(2-nitrophenyl)-1,2-dihydro[1]benzothieno[2,3-c] pyridin-3(4H)-one]
DNA content (%) G0-G1: 49.61% | DNA content (%) G2/M: 6.21% | DNA content (%) Pre-G1: 42.55% | DNA content (%) S: 44.18%
